# In patent publication US20250296959A1, “B7-H3 TARGETING PEPTIDES AND CONSTRUCTS THEREOF” (Mariana Oncology Inc., priority 2024, published 2025):
# pKd: −log10 of the molar value. Positions of bridges follow the written chain, without caps; N, C: chain ends. Non-standard residues stand in square brackets, D forms with d. Residues, ends and D or L forms follow the SMILES beside them. *: point of attachment. DOTA = O=C(O)CN1CCN(CC(=O)O)CCN(CC(=O)*)CCN(CC(=O)O)CC1; Trp(5-F) = N[C@@H](Cc1c[nH]c2ccc(F)cc12)C(=O)O; Ala(4-THP) = N[C@@H](CC1CCOCC1)C(=O)O; Val(3-OH) = CC(C)(O)[C@H](N)C(=O)O; Cha = N[C@@H](CC1CCCCC1)C(=O)O; Tle = CC(C)(C)[C@H](N)C(=O)O; hLeu = CC(C)CC[C@H](N)C(=O)O; hSer = N[C@@H](CCO)C(=O)O; Aze = O=C(O)[C@@H]1CCN1; Dap = NC[C@H](N)C(=O)O
# Target: T1, human 4lg B7-H3 (Homo sapiens, UniProt Q5ZPR3)
# T1 sequence (Q5ZPR3 29-534): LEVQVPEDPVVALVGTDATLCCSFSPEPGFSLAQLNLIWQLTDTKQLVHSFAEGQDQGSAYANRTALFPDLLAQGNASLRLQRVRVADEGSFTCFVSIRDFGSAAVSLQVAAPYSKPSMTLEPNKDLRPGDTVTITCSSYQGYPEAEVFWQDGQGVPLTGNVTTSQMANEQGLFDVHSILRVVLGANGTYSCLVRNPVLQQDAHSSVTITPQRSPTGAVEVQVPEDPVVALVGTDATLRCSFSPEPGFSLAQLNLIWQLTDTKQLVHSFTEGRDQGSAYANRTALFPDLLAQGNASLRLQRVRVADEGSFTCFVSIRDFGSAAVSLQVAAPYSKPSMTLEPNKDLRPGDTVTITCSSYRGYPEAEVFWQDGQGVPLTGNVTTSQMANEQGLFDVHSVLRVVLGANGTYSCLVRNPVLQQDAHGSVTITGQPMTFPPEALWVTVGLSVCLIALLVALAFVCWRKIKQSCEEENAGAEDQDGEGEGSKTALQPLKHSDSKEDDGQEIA
# Assay: Affinity determination by surface plasmon resonance (SPR) to 4Ig B7-H3
# Conditions: SPR KD—37° C., 4Ig B7-H3; 37° C. flow cell temperature
row,pKd,SMILES
1,> 9.00,"CC(=O)N[C@@H](CCC(C)C)C(=O)N[C@@H](Cc1ccc(O)cc1)C(=O)N[C@H]1CSSC[C@@H](C(=O)N[C@@H](Cc2c[nH]c3ccc(F)cc23)C(=O)N[C@@H](Cc2ccccc2)C(=O)N[C@H](C(=O)N[C@H](CCCCNC(=O)CN2CCN(CC(=O)O)CCN(CC(=O)O)CCN(CC(=O)O)CC2)C(=O)O)C(C)(C)O)NC(=O)[C@H](Cc2ccc(O)cc2)NC(=O)[C@H](C(C)C)NC(=O)[C@H](CC(=O)O)NC(=O)[C@H](CC2CCOCC2)NC(=O)[C@H](CN)NC(=O)CNC(=O)[C@H](C(C)(C)C)NC1=O [compound 372, Ac-hLeu-Y-C-Tbg-G-Dap-ThpA-D-V-Y-C-5FW-F-hydroxyVal-dLys(DOTA)-COOH] (Ac-[hLeu]YC[Tle]G[Dap][Ala(4-THP)]DVYC[Trp(5-F)]F[Val(3-OH)][dK](DOTA)-OH; disulfide 3-11)"
2,8.00 to 9.00,"CC(=O)N[C@@H](CCC(C)C)C(=O)N[C@@H](Cc1ccc(O)cc1)C(=O)N[C@H]1CSSC[C@@H](C(=O)N[C@@H](Cc2c[nH]c3ccc(F)cc23)C(=O)N[C@@H](Cc2ccccc2)C(=O)N[C@H](C(=O)N[C@H](CCCCNC(=O)CN2CCN(CC(=O)O)CCN(CC(=O)O)CCN(CC(=O)O)CC2)C(=O)O)C(C)(C)O)NC(=O)[C@H](Cc2ccc(O)cc2)NC(=O)[C@H](CCO)NC(=O)[C@H](CC(=O)O)NC(=O)[C@H](CC2CCOCC2)NC(=O)[C@H](CCCCN)NC(=O)CNC(=O)[C@H](C(C)(C)C)NC1=O [compound 373, Ac-hLeu-Y-C-Tbg-G-K-ThpA-D-hSer-Y-C-5FW-F-hydroxyVal-dLys(DOTA)-COOH] (Ac-[hLeu]YC[Tle]GK[Ala(4-THP)]D[hSer]YC[Trp(5-F)]F[Val(3-OH)][dK](DOTA)-OH; disulfide 3-11)"

# Second part, the compound before the results:
row,SMILES,pKd
1,"CC(=O)N[C@@H](CC1CCCCC1)C(=O)N[C@@H](Cc1ccc(O)cc1)C(=O)N[C@H]1CSSC[C@@H](C(=O)N[C@@H](Cc2c[nH]c3ccc(F)cc23)C(=O)N[C@@H](Cc2ccccc2)C(=O)N[C@H](C(=O)N[C@H](CCCCNC(=O)CN2CCN(CC(=O)O)CCN(CC(=O)O)CCN(CC(=O)O)CC2)C(=O)O)C(C)(C)O)NC(=O)[C@H](Cc2ccc(O)cc2)NC(=O)[C@H](C(C)C)NC(=O)[C@H](CC(=O)O)NC(=O)[C@H](CC2CCOCC2)NC(=O)[C@H](CCCCN)NC(=O)CNC(=O)[C@H](C(C)(C)C)NC1=O [compound 367, Ac-Cha-Y-C-Tbg-G-K-ThpA-D-V-Y-C-5FW-F-hydroxyVal-dLys(DOTA)-COOH] (Ac-[Cha]YC[Tle]GK[Ala(4-THP)]DVYC[Trp(5-F)]F[Val(3-OH)][dK](DOTA)-OH; disulfide 3-11)",8.00 to 9.00
2,"CC(=O)N[C@@H](CCC(C)C)C(=O)N[C@@H](Cc1ccc(O)cc1)C(=O)N[C@H]1CSSC[C@@H](C(=O)N[C@@H](Cc2c[nH]c3ccc(F)cc23)C(=O)N[C@@H](Cc2ccccc2)C(=O)N[C@H](C(=O)N[C@H](CCCCNC(=O)CN2CCN(CC(=O)O)CCN(CC(=O)O)CCN(CC(=O)O)CC2)C(=O)O)C(C)(C)O)NC(=O)[C@H](Cc2ccc(O)cc2)NC(=O)[C@H](C(C)C)NC(=O)[C@H](CC(=O)O)NC(=O)[C@H](CC2CCOCC2)NC(=O)[C@H](CCCCN)NC(=O)CNC(=O)[C@H]([C@@H](C)O)NC1=O [compound 370, Ac-hLeu-Y-C-Thr-G-K-ThpA-D-V-Y-C-5FW-F-hydroxyVal-dLys(DOTA)-COOH] (Ac-[hLeu]YCTGK[Ala(4-THP)]DVYC[Trp(5-F)]F[Val(3-OH)][dK](DOTA)-OH; disulfide 3-11)",8.00 to 9.00
3,"CC(=O)N[C@@H](CCC(C)C)C(=O)N[C@@H](Cc1ccc(O)cc1)C(=O)N[C@H]1CSSC[C@@H](C(=O)N[C@@H](Cc2c[nH]c3ccc(F)cc23)C(=O)N[C@@H](Cc2ccccc2)C(=O)N[C@H](C(=O)N[C@H](CCCCNC(=O)CN2CCN(CC(=O)O)CCN(CC(=O)O)CCN(CC(=O)O)CC2)C(=O)O)C(C)(C)O)NC(=O)[C@H](Cc2ccc(O)cc2)NC(=O)[C@H](C(C)C)NC(=O)[C@H](CC(=O)O)NC(=O)[C@H](CC2CCOCC2)NC(=O)[C@@H]2CCN2C(=O)CNC(=O)[C@H](C(C)(C)C)NC1=O [compound 375, Ac-hLeu-Y-C-Tbg-G-Aze-ThpA-D-V-Y-C-5FW-F-hydroxyVal-dLys(DOTA)-COOH] (Ac-[hLeu]YC[Tle]G[Aze][Ala(4-THP)]DVYC[Trp(5-F)]F[Val(3-OH)][dK](DOTA)-OH; disulfide 3-11)",8.00 to 9.00
